Here are results for five compounds from ChEMBL document CHEMBL1201862, “PubChem BioAssay data set” (2004).

As usually defined, the EC50 is the midpoint of the concentration-response curve. As a reminder, the IC50 is the midpoint of a concentration-inhibition curve. A word on the CC50: it is the concentration giving 50% cytotoxicity. Broadly, the AC50 is the concentration giving half of the maximal activity seen.

For assay [1], the target named is Voltage-gated inwardly rectifying potassium channel KCNH2 (Homo sapiens, UniProt Q12809). Kind of assay: concentration-dependent hERG rescue from blockers – cell-based, thallium flux, dose response (AID 2121). It counts as ADME. In general terms: The hERG channel carries a current that helps repolarise heart muscle cells.
Assay [2] addresses Cysteine protease ATG4B (Homo sapiens, UniProt Q9Y4P1). It counts as functional.
Assay [3] deals with Phospholipase A2 (Homo sapiens, UniProt P04054). Type of assay: functional.
Assay [4] relates to Vero. As to the kind of experiment: cells. Type of assay: functional, cell-based. Particulars: Chlorocebus sabaeus.
Assay [5] deals with Vero. Kind of assay: cells. Type of assay: functional. The note with it: Chlorocebus sabaeus.
Assay [6] is described as follows: Late stage counterscreen results from the probe development effort to identify activators of signal transducer and activator of transcription 1 (STAT1): luminescence-based cell-based dose response assay to identify cytotoxic compounds. It counts as functional. In general terms: A counterscreen serves to expose hits that act by an unwanted route or on another target.

Assay [7] addresses Peroxisome proliferator-activated receptor gamma/Nuclear receptor corepressor 2 (Homo sapiens, UniProt P37231+Q9Y618). As to the kind of experiment: Counterscreen for NR2E3 inverse agonists: TR-FRET-based biochemical high throughput dose response assay to identify inverse agonists of the interaction between peroxisome proliferator-activated receptor gamma (PPARg) and nuclear receptor co-repressor 2 (NCOR2). It counts as functional.

Assay [8] deals with Photoreceptor-specific nuclear receptor (Homo sapiens, UniProt Q9Y5X4). As to the kind of experiment: ligands suppressing NR2E3 nuclear receptor activity – biochemical, TR-FRET, dose response (AID 463256). Type of assay: functional.
In assay [9] the target is Sphingosine 1-phosphate receptor 2 (Homo sapiens, UniProt O95136). As to the kind of experiment: Dose Response Cell Based Assay for Antagonists of the S1P2 Receptor. [Related pubchem assays: 856, 736 ]. It counts as functional.
A short description of assay [10]: HPDE-C7 pancreatic duct cell viability loss – fluorescence, HTS (AID 430). Type of assay: functional, cell-based. The note with it: Homo sapiens.
Assay [11] is described as follows: Trypanosoma cruzi growth suppression in host cells – NIH3T3 host cells, beta-gal luminescence, confirmation (AID 2044).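 Note: intracellular parasites grown in NIH/3T3 mouse fibroblasts as host cells; luminescent beta-galactosidase reporter signal from transgenic T. cruzi replicating inside host cells; inhibitors lower the luminescence signal.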 It counts as functional, cell-based.
Assay [12] is described as follows: viability loss of HPDE-C7K cells – cell-based, fluorescence, HTS, primary screen (AID 431). The note with it: Homo sapiens. Type of assay: functional.
The nature of assay [13]: viability of PTEN-deleted HCT116 cells – cell-based, HCT116 PTEN knockout, dose response (AID 1047).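 Note: HCT116 colon tumor cells with PTEN knocked out; cells exposed to compound for 60 hours before readout; potency for loss of cell viability measured by luminescence.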 It counts as functional.
Assay [14] is described as follows: NIH3T3 cell viability loss – ATP luminescence, mouse fibroblasts, counter-screen, dose response (AID 2010).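 Note: cells exposed to compound for about 90 hours before reading.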 Type of assay: functional, cell-based.
The nature of assay [15]: viability of HCT116 lacking mutant beta-catenin – cell-based, human colon tumor, dose response (AID 1045).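 Note: HCT116 colon tumor cells with beta catenin knocked out; cells exposed to compound for 60 hours.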 It counts as functional.
Assay [16] can be described thus: THP-1 cell cytotoxicity, dose response, cytotoxicity control for non-replicating M. tuberculosis project (AID 489025). It counts as functional.
A short description of assay [17]: Vero E6 cell cytotoxicity, dose response, cytotoxicity control for non-replicating M. tuberculosis project, secondary assay (AID 492998). The note with it: Vero C1008. Type of assay: functional, VeroE6.
A short description of assay [18]: HEK-293T viability loss after treatment – luminescence, T-cell screen hits, cytotoxicity control for TCR NF-kB inhibitor project, dose response (AID 489026).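 Note: cells exposed to compound about 14 hours before the viability readout.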 Type of assay: functional, cell-based.
Assay [19] in a line: cells. It counts as functional.
Assay [20] is described as follows: reduction of Shn3 3'UTR-driven luciferase in osteoblasts – cell-based, Clone20 osteoblasts, firefly luciferase, cherry-picked, dose response (AID 624132).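 Note: firefly luciferase luminescence from reporter carrying the Shn3 3'UTR in osteoblasts.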 It counts as functional.
Assay [21] in a line: loss of viability in HepG2 cells – cell-based, CellTiter-Glo, cherry-picked, cytotoxicity control for Shn3 inhibitor project, dose response (AID 624134). Type of assay: functional. (In general: In ATP-based viability assays light output follows the ATP content of the culture.)
The nature of assay [22]: non-specific 3'UTR reporter inhibition in Clone20-Shn3RL – cell-based, Renilla luciferase, cherry-picked, counter-screen for Shn3 inhibitor project, dose response (AID 624133). Type of assay: functional.
The target in assay [23] is T1, Aminopeptidase N (Plasmodium falciparum FcB1/Columbia, UniProt O96935).
T1 sequence (O96935 whole entry): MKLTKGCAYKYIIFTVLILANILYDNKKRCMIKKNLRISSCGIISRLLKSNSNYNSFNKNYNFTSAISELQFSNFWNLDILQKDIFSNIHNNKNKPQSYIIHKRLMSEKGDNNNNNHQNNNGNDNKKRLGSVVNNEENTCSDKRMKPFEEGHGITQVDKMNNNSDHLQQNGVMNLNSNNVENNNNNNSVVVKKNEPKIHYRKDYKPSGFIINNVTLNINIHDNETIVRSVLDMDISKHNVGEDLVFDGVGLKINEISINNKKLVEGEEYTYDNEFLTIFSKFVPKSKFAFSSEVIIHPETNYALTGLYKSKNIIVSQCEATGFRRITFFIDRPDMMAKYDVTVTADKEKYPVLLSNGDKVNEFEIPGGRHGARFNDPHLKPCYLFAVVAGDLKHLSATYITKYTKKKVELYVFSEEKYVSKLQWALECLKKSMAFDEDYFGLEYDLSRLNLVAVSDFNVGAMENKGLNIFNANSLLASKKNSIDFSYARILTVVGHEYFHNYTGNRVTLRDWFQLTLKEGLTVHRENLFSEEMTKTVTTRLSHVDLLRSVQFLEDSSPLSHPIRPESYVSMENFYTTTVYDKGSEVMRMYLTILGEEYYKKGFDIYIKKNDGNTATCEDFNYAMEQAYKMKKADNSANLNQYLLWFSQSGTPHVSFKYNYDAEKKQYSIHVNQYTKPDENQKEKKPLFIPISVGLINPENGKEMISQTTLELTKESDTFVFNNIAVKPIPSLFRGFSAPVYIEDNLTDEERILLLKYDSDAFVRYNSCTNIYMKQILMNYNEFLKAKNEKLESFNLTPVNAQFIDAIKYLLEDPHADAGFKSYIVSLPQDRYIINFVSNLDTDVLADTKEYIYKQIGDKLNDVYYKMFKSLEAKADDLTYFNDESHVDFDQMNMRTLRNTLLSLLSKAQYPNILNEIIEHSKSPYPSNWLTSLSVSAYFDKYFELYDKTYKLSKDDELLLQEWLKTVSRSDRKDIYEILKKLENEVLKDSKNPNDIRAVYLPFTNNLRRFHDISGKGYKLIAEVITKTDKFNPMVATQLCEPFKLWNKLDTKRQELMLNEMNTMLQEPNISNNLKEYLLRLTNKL
Kind of assay: malaria alanyl aminopeptidase activity blockers – biochemical, fluorogenic H-Leu-NHMec substrate, 1536-well (AID 1445). Set-up: species or system Plasmodium falciparum 3D7, 3D7.

In assay [24] the target is T2, RNA-binding protein pos-1 (Caenorhabditis elegans, UniProt G5EF15).
T2 sequence (G5EF15 whole entry): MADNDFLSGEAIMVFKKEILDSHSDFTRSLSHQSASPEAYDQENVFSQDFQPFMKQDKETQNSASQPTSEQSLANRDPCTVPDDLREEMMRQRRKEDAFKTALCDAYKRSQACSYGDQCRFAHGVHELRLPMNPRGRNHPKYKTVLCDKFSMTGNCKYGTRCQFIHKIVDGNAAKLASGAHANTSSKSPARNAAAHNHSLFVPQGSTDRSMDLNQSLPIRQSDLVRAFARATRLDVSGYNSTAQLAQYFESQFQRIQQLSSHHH
Kind of assay: disruptors of C. elegans POS-1 RNA interaction – biochemical, fluorescence polarization, dose response (AID 1964).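 Note: purified POS-1 fused to maltose binding protein made in E. coli; potency of compounds blocking POS-1 binding to fluorescent RNA.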

Assay [25] concerns the target T3, Zinc finger protein mex-5 (Caenorhabditis elegans, UniProt Q9XUB2).
T3 sequence (Q9XUB2 whole entry): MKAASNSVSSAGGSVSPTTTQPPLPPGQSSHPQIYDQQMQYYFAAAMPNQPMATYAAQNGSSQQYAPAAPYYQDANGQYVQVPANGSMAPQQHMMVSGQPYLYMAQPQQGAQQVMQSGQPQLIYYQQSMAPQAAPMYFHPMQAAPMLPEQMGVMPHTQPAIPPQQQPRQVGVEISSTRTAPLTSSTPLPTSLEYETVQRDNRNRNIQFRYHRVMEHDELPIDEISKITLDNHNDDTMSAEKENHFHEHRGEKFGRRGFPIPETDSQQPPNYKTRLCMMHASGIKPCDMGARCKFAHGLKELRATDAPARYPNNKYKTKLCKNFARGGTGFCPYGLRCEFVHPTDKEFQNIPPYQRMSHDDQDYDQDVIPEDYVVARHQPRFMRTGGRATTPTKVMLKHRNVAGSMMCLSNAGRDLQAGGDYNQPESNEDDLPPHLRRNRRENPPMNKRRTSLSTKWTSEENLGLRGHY
As to the kind of experiment: potency of MEX-5 RNA-binding blockers – biochemical, C. elegans, fluorescence polarization, dose response (AID 1960).

For assay [26], the target named is Ephrin type-A receptor 4 (Mus musculus, UniProt Q03137). As to the kind of experiment: EphA4 ligand-binding antagonists – biochemical, colorimetric, mouse EphA4, primary screen (AID 689). Type of assay: functional.
Assay [27] addresses Induced myeloid leukemia cell differentiation protein Mcl-1 (Homo sapiens, UniProt Q07820). Type of assay: functional.
In assay [28] the target is Eukaryotic translation initiation factor 4E (Mus musculus, UniProt P63073). Kind of assay: blockers of eIF4G binding by eIF4E – biochemical, TR-FRET, dose response (AID 855).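 Note: potency for disrupting eIF4E binding to eIF4GI seen as loss of FRET.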 It counts as functional.

Calls of active or inactive are those of the source. Bounds are passed on as bounds.

Sequence of Voltage-gated inwardly rectifying potassium channel KCNH2 (Q12809 whole entry): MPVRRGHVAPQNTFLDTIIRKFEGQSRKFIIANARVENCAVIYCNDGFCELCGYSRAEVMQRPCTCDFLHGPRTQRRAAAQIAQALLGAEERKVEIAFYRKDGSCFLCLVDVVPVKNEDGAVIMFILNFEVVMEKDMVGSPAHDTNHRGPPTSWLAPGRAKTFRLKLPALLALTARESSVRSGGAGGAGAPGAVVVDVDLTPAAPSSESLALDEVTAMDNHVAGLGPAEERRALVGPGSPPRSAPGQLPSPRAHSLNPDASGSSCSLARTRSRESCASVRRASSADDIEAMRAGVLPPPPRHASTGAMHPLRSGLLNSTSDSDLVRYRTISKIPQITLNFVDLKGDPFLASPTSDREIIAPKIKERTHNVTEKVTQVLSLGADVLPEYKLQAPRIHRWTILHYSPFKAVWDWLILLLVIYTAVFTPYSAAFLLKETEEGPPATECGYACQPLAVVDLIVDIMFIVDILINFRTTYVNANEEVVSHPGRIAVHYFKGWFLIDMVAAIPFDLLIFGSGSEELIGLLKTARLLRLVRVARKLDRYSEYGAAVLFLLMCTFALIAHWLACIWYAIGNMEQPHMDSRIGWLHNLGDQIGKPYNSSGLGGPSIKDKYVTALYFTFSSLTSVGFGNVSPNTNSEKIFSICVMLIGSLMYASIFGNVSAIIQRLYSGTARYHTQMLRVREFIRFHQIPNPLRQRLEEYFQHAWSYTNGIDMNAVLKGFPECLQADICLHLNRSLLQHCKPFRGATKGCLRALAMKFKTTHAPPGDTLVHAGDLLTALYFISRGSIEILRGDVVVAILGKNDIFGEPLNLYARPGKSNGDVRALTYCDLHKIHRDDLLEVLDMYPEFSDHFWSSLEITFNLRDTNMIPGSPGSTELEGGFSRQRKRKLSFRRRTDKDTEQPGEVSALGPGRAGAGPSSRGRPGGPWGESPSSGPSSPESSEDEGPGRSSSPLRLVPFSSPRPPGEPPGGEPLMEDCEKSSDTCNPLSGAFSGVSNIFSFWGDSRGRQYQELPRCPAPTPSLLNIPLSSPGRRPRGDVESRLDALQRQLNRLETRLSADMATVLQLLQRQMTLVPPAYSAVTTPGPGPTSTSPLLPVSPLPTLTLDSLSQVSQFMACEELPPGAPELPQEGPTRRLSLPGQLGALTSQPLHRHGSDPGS
Sequence of Cysteine protease ATG4B (Q9Y4P1 whole entry): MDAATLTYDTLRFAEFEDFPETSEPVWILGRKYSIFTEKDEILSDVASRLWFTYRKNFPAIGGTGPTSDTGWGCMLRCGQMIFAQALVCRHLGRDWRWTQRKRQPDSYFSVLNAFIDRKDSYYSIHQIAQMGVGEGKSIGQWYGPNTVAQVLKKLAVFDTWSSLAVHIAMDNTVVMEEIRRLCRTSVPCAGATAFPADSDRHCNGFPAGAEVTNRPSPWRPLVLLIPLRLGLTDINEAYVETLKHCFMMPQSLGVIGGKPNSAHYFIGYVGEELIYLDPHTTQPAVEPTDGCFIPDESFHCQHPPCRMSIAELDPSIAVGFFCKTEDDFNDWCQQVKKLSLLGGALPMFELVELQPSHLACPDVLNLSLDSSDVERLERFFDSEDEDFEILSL
Sequence of Ephrin type-A receptor 4 (Q03137 whole entry): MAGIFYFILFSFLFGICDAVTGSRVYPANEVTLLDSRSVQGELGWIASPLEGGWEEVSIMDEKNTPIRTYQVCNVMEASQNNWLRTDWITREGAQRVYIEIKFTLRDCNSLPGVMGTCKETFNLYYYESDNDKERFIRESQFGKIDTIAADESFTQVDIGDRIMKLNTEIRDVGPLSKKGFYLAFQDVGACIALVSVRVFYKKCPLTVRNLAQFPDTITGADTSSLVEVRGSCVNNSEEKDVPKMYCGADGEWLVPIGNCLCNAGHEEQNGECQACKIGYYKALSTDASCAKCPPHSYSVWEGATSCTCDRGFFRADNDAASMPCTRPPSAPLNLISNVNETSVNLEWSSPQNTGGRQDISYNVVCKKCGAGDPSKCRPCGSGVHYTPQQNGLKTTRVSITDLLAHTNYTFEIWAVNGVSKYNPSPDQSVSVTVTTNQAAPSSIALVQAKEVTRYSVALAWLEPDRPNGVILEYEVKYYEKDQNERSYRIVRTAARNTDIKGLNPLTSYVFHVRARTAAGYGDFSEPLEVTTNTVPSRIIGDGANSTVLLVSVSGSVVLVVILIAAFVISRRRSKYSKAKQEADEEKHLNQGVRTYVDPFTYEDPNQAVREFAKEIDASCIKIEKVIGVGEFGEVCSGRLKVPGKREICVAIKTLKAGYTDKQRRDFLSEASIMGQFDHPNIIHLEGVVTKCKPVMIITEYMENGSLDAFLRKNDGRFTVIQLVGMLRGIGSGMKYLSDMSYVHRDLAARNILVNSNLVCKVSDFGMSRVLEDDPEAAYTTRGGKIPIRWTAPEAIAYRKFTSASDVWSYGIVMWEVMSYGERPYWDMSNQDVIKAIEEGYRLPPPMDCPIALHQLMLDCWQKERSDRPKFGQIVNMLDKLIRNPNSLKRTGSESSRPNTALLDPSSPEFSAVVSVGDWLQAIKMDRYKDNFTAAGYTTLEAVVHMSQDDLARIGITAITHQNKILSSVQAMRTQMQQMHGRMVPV
Sequence of Sphingosine 1-phosphate receptor 2 (O95136 whole entry): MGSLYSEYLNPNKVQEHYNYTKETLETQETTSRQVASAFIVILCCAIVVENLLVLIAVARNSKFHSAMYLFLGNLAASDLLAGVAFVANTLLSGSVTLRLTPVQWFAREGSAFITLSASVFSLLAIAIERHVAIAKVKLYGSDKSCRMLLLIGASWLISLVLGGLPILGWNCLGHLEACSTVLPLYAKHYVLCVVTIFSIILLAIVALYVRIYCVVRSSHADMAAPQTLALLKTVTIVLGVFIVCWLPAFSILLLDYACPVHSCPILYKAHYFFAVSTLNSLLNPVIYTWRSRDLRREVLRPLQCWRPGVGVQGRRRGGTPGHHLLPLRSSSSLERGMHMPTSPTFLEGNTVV
Sequence of Phospholipase A2 (P04054 whole entry): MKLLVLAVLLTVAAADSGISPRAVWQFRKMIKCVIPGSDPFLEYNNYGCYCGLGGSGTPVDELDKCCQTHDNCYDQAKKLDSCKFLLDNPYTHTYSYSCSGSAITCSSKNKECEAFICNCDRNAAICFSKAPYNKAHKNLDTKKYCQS
Sequence of Photoreceptor-specific nuclear receptor (Q9Y5X4 whole entry): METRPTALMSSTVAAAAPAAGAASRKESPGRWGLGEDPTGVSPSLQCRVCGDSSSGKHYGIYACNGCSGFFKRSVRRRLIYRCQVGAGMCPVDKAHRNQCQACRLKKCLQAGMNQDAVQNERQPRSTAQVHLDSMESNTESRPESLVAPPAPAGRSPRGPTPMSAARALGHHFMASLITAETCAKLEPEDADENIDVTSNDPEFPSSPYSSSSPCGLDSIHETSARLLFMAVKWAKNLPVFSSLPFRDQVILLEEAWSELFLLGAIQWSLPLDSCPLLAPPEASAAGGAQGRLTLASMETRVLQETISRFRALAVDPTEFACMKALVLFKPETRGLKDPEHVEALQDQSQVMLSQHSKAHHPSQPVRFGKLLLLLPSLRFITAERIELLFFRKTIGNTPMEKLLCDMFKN
Sequence of Eukaryotic translation initiation factor 4E (P63073 whole entry): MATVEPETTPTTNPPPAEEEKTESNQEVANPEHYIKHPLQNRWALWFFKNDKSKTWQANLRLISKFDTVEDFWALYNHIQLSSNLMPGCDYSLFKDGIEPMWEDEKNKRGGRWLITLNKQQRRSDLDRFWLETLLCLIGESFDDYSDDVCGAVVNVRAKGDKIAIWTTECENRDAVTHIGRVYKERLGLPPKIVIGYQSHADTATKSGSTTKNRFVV
Sequence of Induced myeloid leukemia cell differentiation protein Mcl-1 (Q07820 whole entry): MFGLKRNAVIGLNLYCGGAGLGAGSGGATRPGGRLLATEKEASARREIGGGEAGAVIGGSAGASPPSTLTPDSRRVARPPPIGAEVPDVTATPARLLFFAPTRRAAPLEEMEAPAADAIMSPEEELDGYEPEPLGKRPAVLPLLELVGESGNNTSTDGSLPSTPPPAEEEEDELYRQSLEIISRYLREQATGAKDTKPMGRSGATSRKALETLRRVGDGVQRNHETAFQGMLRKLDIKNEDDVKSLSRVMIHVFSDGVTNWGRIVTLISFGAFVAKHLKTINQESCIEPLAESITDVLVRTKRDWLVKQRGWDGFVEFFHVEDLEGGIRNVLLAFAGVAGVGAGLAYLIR

As to `Cc1ccc(C(=O)CC(=O)c2cc(Cl)ccc2O)cc1`, the EC50 in assay [1] is 3.02 µM (active). The figures for the IC50 in assay [2], in assay [3] and in [4] were 11.1 µM (active), 8 µM (active) and 23.8 µM (active), respectively. The CC50 in assay [5] was 22.3 µM (active).
Consider `CCOC(=O)/C(C#N)=C/c1cc(C)n(-c2ccccc2)c1C`, for which the IC50 in assay [6] is > 55.7 µM (not active).
As to `Cn1c(SCC(=O)c2ccc3c(c2)Cc2ccccc2-3)nnc1-c1ccccc1`, the IC50 in assay [7] was 4.12 µM (active); in assay [8], 3.82 µM (active).
`O=S1(=O)C=C(Sc2nc3cc(Cl)ccc3o2)c2ccccc21`: the IC50 in assay [9] is 3.47 µM (active); in assay [18], 54.3 µM (inactive); in assay [19] it was 1.57 µM (active). For the same compound, the EC50 in assay [10] is 4.03 µM (active); in assay [11] it was 0.818 µM (active); in assay [12] it was 9.45 µM (active); in assay [13], 4.03 µM (active); in assay [14], 1.58 µM (active); in assay [15], 3.65 µM (active). Moreover, the CC50 in assay [16] was 8.54 µM (active); in [17] it was 5.94 µM (active). In addition, the AC50 was < 0.26 µM (active) in assay [20], 18.4 µM (active) in assay [21] and 4.15 µM (active) in assay [22].
Take `CCOC(=O)c1cc(-c2ccc(/C=C3/C(=O)NC(=O)C(C#N)=C3C)o2)ccc1Cl`: the IC50 in assay [23] was 80.1 µM (active); in assay [26], 2.53 µM (active); in assay [27], 0.752 µM (active); in assay [28] it was 23.4 µM (active). The values for the EC50 in assay [24] and in assay [25] were 19.9 µM (active) and 17.4 µM (active), respectively.
